Values after ≈ are worked out from the molar mass of the structure shown.
Columns and labels:
hERG (KCNH2) [1] = target: T1, hERG (KCNH2) (Homo sapiens, UniProt Q12809); experiment: Inhibition of human ERG expressed in CHOK1 cells at 30 uM; format: cell-based; settings: CHO-K1 cells expressing hERG
Streptococcus pneumoniae [2] = experiment: Antibacterial activity against penicillin-susceptible Streptococcus pneumoniae J24 after 18 hrs by microbroth dilution method; format: functional; settings: J24, 18 h
[3] = AUC (0 to 8 hrs) in Crj:CD rat kidney at 5 mg/kg, po; format: ADME, organism-based; set-up: time < 8 hr, dose 5 mg/kg, route oral
[4] = Drug uptake in cynomolgus monkey serum at 5 mg/kg, iv after 5 mins; format: ADME, organism-based, Macaca fascicularis; set-up: dose 5 mg/kg, route intravenous; settings: read-out: Drug uptake
Streptococcus pneumoniae [5] = experiment: Antibacterial activity against levofloxacin-intermediate and levofloxacin-resistant Streptococcus pneumoniae after 18 hrs by microbroth dilution method; format: functional
[6] = Bioavailability in cynomolgus monkey at 5 mg/kg, po; format: ADME, organism-based, Macaca fascicularis; settings: in vivo
Klebsiella pneumoniae = experiment: Antibacterial activity against Klebsiella pneumoniae TYPE1 after 18 hrs by microbroth dilution method; format: functional; settings: TYPE1, 18 h
[7] = AUC (0 to 8 hrs) in cynomolgus monkey serum at 5 mg/kg, iv; format: ADME, organism-based, Macaca fascicularis, Plasma; set-up: time < 8 hr, dose 5 mg/kg, route intravenous
Bacillus subtilis = experiment: Antibacterial activity against Bacillus subtilis IID 685 after 18 hrs by microbroth dilution method; format: functional; settings: IID 685, 18 h
Chlamydia pneumoniae [8] = experiment: Antibacterial activity against Chlamydophila pneumoniae AR39 after 18 hrs by microbroth dilution method; format: functional; settings: AR39, 18 h
hERG (KCNH2) [9] = target: T1, hERG (KCNH2); experiment: Inhibition of human ERG expressed in CHOK1 cells at 100 uM; format: cell-based; settings: CHO-K1 cells expressing hERG
[10] = system: Mycoplasmoides pneumoniae; experiment: Antibacterial activity against Mycoplasma pneumoniae 18-1 after 18 hrs by microbroth dilution method; format: functional; settings: 18-1, 18 h
Mus musculus [11] = experiment: Toxicity in SLC:ddY mouse assessed as induction of micronucleus formation at 100 mg/kg, iv after 24 to 48 hrs by fluorescence microscopic analysis; format: organism-based; set-up: dose 100 mg/kg, route intravenous; settings: in vivo
[12] = Ratio of AUC (0 to 8 hrs) in Crj:CD rat liver to AUC (0 to 8 hrs) in Crj:CD rat serum at 5 mg/kg, po; format: ADME, organism-based; set-up: dose 5 mg/kg, route oral; settings: read-out: Ratio AUC
[13] = AUC (0 to 24 hrs) in cynomolgus monkey serum at 5 mg/kg, po; format: ADME, organism-based, Macaca fascicularis, Plasma; set-up: time < 24 hr, dose 5 mg/kg, route oral
Mus musculus [14] = experiment: Toxicity in SLC:ddY mouse assessed as mortality at 150 mg/kg, iv after 7 days; format: organism-based; set-up: dose 150 mg/kg, route intravenous; settings: in vivo, 168 h
Chlamydia pneumoniae [15] = experiment: Antibacterial activity against Chlamydophila pneumoniae CM-1 after 18 hrs by microbroth dilution method; format: functional; settings: CM-1, 18 h
Chlamydia pneumoniae [16] = experiment: Ratio of MIC for levofloxacin to compound MIC for Chlamydophila pneumoniae AR39; format: functional
Staphylococcus aureus = experiment: Ratio of MIC for levofloxacin to compound MIC for Staphylococcus aureus FDA 209-P; format: functional
[17] = AUC (0 to 8 hrs) in Crj:CD rat serum at 5 mg/kg, po; format: ADME, organism-based; set-up: time < 8 hr, dose 5 mg/kg, route oral
Streptococcus pyogenes = experiment: Ratio of MIC for levofloxacin to compound MIC for Streptococcus pyogenes G-36; format: functional
Chlamydia pneumoniae [18] = experiment: Ratio of MIC for levofloxacin to compound MIC for Chlamydophila pneumoniae CM-1; format: functional
[19] = Aqueous solubility of the compound; format: physicochemical
Mus musculus [20] = experiment: Toxicity in SLC:ddY mouse assessed as mortality at 100 mg/kg, iv after 7 days; format: organism-based; set-up: dose 100 mg/kg, route intravenous; settings: in vivo, 168 h
[21] = Cmax in Crj:CD rat serum at 5 mg/kg, po; format: ADME, organism-based; set-up: dose 5 mg/kg, route oral
Haemophilus influenzae = experiment: Antibacterial activity against Haemophilus influenzae ATCC 49247 after 18 hrs by microbroth dilution method; format: functional; settings: ATCC 49247, 18 h
[22] = system: Staphylococcus epidermidis; experiment: Ratio of MIC for levofloxacin to compound MIC for Staphylococcus epidermidis 56500; format: functional
[23] = system: Mycoplasmoides pneumoniae; experiment: Ratio of MIC for levofloxacin to compound MIC for Mycoplasma pneumoniae ATCC 29085; format: functional
Enterococcus faecalis = experiment: Ratio of MIC for levofloxacin to compound MIC for Enterococcus faecalis ATCC 19433; format: functional

T1 sequence (Q12809 whole entry): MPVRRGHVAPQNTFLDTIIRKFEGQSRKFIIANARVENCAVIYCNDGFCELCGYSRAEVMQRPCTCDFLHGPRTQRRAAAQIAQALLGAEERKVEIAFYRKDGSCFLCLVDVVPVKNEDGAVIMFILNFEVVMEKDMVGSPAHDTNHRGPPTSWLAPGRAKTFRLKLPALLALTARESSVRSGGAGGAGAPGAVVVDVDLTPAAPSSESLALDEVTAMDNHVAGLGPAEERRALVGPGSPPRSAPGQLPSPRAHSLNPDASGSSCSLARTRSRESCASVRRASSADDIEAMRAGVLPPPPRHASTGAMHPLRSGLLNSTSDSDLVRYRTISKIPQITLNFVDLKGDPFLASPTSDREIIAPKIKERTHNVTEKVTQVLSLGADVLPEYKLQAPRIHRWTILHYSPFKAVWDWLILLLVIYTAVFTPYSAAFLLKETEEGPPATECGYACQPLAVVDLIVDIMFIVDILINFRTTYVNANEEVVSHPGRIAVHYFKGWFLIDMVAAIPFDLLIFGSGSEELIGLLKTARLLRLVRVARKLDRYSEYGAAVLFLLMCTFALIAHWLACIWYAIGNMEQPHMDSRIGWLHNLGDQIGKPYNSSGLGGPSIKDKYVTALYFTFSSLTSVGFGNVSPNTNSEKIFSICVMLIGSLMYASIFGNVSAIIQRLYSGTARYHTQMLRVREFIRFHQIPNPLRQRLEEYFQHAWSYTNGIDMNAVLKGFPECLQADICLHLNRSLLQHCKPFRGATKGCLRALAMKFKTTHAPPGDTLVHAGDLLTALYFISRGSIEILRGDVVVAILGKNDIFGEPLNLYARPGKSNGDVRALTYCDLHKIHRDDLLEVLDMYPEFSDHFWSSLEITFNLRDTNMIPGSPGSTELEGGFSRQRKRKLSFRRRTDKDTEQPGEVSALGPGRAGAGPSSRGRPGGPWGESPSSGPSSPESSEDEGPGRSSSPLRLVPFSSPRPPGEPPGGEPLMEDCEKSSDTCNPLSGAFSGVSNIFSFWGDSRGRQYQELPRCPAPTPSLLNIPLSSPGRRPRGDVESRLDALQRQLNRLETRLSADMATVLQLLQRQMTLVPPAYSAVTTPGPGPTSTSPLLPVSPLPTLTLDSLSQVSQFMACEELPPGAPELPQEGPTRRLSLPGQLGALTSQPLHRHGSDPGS

COc1c(N2CC3(CC3)[C@](C)(N)C2)c(F)cc2c(=O)c(C(=O)O)cn([C@@H]3C[C@@H]3F)c12
inhibition at 30 µM (hERG (KCNH2) [1]): 1.9%
MIC (Streptococcus pneumoniae [2]): 0.05 µg/mL (≈ 0.119 µM)
AUC(0-t) at 8 h [3]: 27800 ng·h/mL
concentration at 5 min [4]: 3660 ng/mL
MIC50 (Streptococcus pneumoniae [5]): 1 µg/mL (≈ 2.38 µM)
MIC80 (Streptococcus pneumoniae [5]): 1 µg/mL (≈ 2.38 µM)
MIC90 (Streptococcus pneumoniae [5]): 1 µg/mL (≈ 2.38 µM)
bioavailability [6]: 71%
MIC (Klebsiella pneumoniae): 0.05 µg/mL (≈ 0.119 µM)
AUC(0-t) at 8 h [7]: 23800 ng·h/mL
MIC (Bacillus subtilis): 0.1 µg/mL (≈ 0.238 µM)
MIC (Chlamydia pneumoniae [8]): 0.125 µg/mL (≈ 0.298 µM)
inhibition at 100 µM (hERG (KCNH2) [9]): 2.7%
MIC [10]: 0.12 µg/mL (≈ 0.286 µM)
Activity (Mus musculus [11]): Non-toxic
Kp [12]: 10.4
AUC(0-t) at 24 h [13]: 16900 ng·h/mL
Activity (Mus musculus [14]): Non-toxic
MIC (Chlamydia pneumoniae [15]): 0.063 µg/mL (≈ 0.15 µM)
Ratio (Chlamydia pneumoniae [16]): 4
Ratio (Staphylococcus aureus): >4
AUC(0-t) at 8 h [17]: 3080 ng·h/mL
Ratio (Streptococcus pyogenes): >4
Ratio (Chlamydia pneumoniae [18]): 4
solubility [19]: 620 µg/mL (≈ 1480 µM)
Activity (Mus musculus [20]): Non-toxic
Cmax [21]: 1220 ng/mL
MIC (Haemophilus influenzae): 0.012 µg/mL (≈ 0.0286 µM)
Ratio [22]: >4
Ratio [23]: 4
Ratio (Enterococcus faecalis): >4
